In ChEMBL document CHEMBL1150825, “Anti-HIV prenylated flavonoids from Monotes africanus” (J Nat Prod, 2001) one finds EC50 and IC50 data, which are given here for 6 compounds.

The experiment concerns Human immunodeficiency virus. Briefly: Antiviral activity against HIV assessed as protection against virus-induced cytopathicity by cell based XTT assay. Type of experiment: functional, organism-based. (Damage to the host cells serves as the signal in cytopathic effect assays.)
The mark [1] stands for this setting: Human immunodeficiency virus 1, read-out: EC50.

Each structure is given as a SMILES string. In brackets after ≈: the same amount, converted by molar mass.

With `C=CC(C)(C)c1c(O)cc2c(c1O)C(=O)C[C@@H](c1ccc(O)cc1)O2`, the EC50 (in general, the concentration at which the effect is half-maximal) is “Not Active”.

With `CC(C)=CCc1c(O)c(CC=C(C)C)c2c(c1O)C(=O)[C@H](O)[C@@H](c1ccc(O)cc1)O2`, the IC50 (in general, the concentration at which inhibition is half-maximal) (Human immunodeficiency virus 1) was 4.7 µg/mL (≈ 11.1 µM). Under setting [1], the EC50 was determined as 2.1 µg/mL (≈ 4.95 µM).

On to `CC(C)=CCc1c(O)c(CC=C(C)C)c2oc(-c3ccc(O)cc3)c(O)c(=O)c2c1O`, for which the IC50 (Human immunodeficiency virus 1) is 5.8 µg/mL (≈ 13.7 µM). For the same compound, the concentration for a half-maximal effect (EC50) under setting [1] was found to be 2.4 µg/mL (≈ 5.68 µM).

On to `CC(C)=CCC/C(C)=C/Cc1c(O)cc2c(c1O)C(=O)[C@H](O)[C@@H](c1ccc(O)cc1)O2` [BONANNIOL A], for which the EC50 result was “Not Active”.

On to `CC(C)=CCc1c(O)c(CC=C(C)C)c2c(c1O)C(=O)C[C@@H](c1ccc(O)cc1)O2` [LONCHOCARPOL A], for which, where the note is “Human immunodeficiency virus 1”, the IC50 came out at 2.7 µg/mL (≈ 6.61 µM). The EC50 under setting [1] came to 1.3 µg/mL (≈ 3.18 µM).

In the case of `CC(C)=CCC/C(C)=C/Cc1c(O)cc2oc(-c3ccc(O)cc3)c(O)c(=O)c2c1O` [MACARANGIN], the EC50 entry is “Not Active”.
